Test results from US12258424B2, “Polypeptides and compositions comprising the same” (priority 2020, dated 2025).
Positions of bridges follow the written chain, without caps; N, C: chain ends. Residues, ends and D or L forms follow the SMILES beside them.

What was measured:
hPD-L1 [1] = target: T1, hPD-L1 (Homo sapiens, UniProt Q9NZQ7); assay: PD-1/PD-L1 inhibitor screening ELISA, human proteins; type: binding; set-up: purchased Acro Biosystems EP-101
Method: (§1) Blocking efficiency at 10 μM/IC50 against human and mouse PD1/PD-L1 (ELISA). […] 100 ng of recombinant human PD-L1 protein was coated in 96-well plates at 4° C. for 16 h with shaking over an orbital shaker. Unbound protein was removed by washing twice with PBS (pH 7.2-7.4), 2% BSA was added for 1.5 h at 37° C. to block the plate. Specific concentrations of the peptides were dispensed into the appropriate wells and incubated for 2 h at 37° C. […] This was followed by the addition of streptavidin-HRP and chromogenic substrate (R & D systems). The color reaction was terminated with 2N H2SO4, absorbance was recorded at OD450 and referenced to OD540.

PD1/PD-L1 = PD1/PD-L1 (Homo sapiens, UniProt Q9NZQ7); assay: IC50 and blocking efficiency against PD1/PD-L1 (Table 5); type: binding
Method: as §1

[2] = Proteolytic stability in 50% human serum (LC-MS); type: in vitro ADME
Method: Half-life in 50% human serum. Proteolytic stability of the peptides was investigated using LC-MS. Solutions of the anti-PD-L1 peptides were incubated with 50% human serum at […], aliquots were taken at specific time points for processing and subsequent LC-MS analysis.

[3] = Cell viability of DU145 cells (CellTiter-Glo); type: cell-based; details: human, read-out: % cell viability after incubation with 50 μM peptide
Method: % cell viability after incubation with 50 μM peptide. White 96-well plates with clear bottom (Corning, RFE 3610) were seeded with DU145 cells at a density of 1×10^4 cells/well and incubated in a humidified atmosphere at 37° C. with a supply of 5% CO2. After 12 h, various peptide concentrations were added to the cells and incubated for 48 h. CellTiter-Glo kit (Promega, WI) was employed in the cell viability analysis by following the manufacturer's instructions.

hPD-L1 [4] = target: T1, hPD-L1; assay: Competitive SPR blocking of PD-L1 binding to immobilized PD-1; set-up: purchased Acro Biosystems EP-101
Method: % Blocking efficiency at 10 μM (Competitive SPR)/IC50 (competitive SPR) hPD-L1. BI-4500A SPR and a CM-5 sensor chip pre-functionalized with streptavidin (Biosensing Instrument Inc., Tempe, Ariz.) were employed for the SPR analysis. […] Different concentrations of each peptide were incubated with human PD-L1 (AcroBiosystems, cat #EP-101) prior to injection. Human PD-L1 alone was also injected to serve as a control. […] Data was analyzed with SPR Data Analysis Version 3.8.4 (Biosensing Instrument Inc., Tempe, AZ).

mPD-L1 = mPD-L1 (Mus musculus, UniProt Q9EP73); assay: PD-1/PD-L1 blocking ELISA, mouse proteins; type: binding; set-up: purchased Acro Biosystems PD1-M5220 (PD-L1)
Method: as §1

IL-6 = details: cancer patients, Herbst et al. 2014; cited from earlier work

T1 sequence (Q9NZQ7 19-238 limits assumed): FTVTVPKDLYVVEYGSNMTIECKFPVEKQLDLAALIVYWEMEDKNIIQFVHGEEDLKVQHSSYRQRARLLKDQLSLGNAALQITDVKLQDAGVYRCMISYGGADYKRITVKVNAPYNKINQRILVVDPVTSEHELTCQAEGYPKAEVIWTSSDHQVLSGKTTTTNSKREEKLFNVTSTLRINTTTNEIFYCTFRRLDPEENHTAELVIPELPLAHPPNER
PD1/PD-L1, sequence (Q9NZQ7 19-238 limits assumed): as above
mPD-L1, sequence (Q9EP73 19-238 limits assumed): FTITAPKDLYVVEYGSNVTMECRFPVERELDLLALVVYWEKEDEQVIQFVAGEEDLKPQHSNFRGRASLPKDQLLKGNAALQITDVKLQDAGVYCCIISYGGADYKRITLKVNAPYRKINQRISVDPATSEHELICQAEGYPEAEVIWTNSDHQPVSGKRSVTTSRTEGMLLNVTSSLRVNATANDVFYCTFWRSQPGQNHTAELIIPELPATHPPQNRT

Compound | % Blocking efficiency at 10 μM (ELISA) hPD-L1 (hPD-L1 [1]) | % Blocking efficiency at 10 μM (PD1/PD-L1) | half-life [2] | viability at 48 h, 50 µM [3] | % Blocking efficiency at 10 μM (Competitive SPR) hPD-L1 (hPD-L1 [4]) | % Blocking efficiency at 10 μM (ELISA) mPD-L1 (mPD-L1) | Expression of IL-6 in the blood (IL-6)
CC(C)C[C@H](NC(=O)[C@H](CC(N)=O)NC(=O)[C@H](Cc1c[nH]c2ccccc12)NC(=O)[C@@H]1CSSC[C@H](N)C(=O)N[C@@H](Cc2c[nH]cn2)C(=O)N[C@@H](CCCNC(=N)N)C(=O)N[C@@H](CO)C(=O)N[C@@H](Cc2ccc(O)cc2)C(=O)N[C@@H](Cc2ccc(O)cc2)C(=O)N1)C(=O)N[C@@H](CC(N)=O)C(=O)N[C@H](C(=O)O)[C@@H](C)O [CLP2C21] (H-CHRSYYCWNLNT-OH; disulfide 1-7; N-terminus and C-terminus assumed) | 85.9% | 78% | 70.8 min | ~100% | 99.4% | 82.6% | –
MPDL3280A: anti-PD-L1 antibody MPDL3280A (Herbst et al. 2014) | – | – | – | – | – | – | reduced
CC(C)C[C@@H]1NC(=O)[C@H](CC(N)=O)NC(=O)[C@H](Cc2c[nH]c3ccccc23)NC(=O)[C@H]([C@@H](C)O)NC(=O)[C@H](Cc2ccc(O)cc2)NC(=O)[C@H](Cc2ccc(O)cc2)NC(=O)[C@H](CO)NC(=O)[C@H](CCCNC(=N)N)NC(=O)[C@H](Cc2c[nH]cn2)NC(=O)[C@@H](N)CSSC[C@@H](C(=O)O)NC(=O)[C@H](CC(N)=O)NC1=O [CLP2C14] (H-CHRSYYTWNLNC-OH; disulfide 1-12; N-terminus and C-terminus assumed) | 75.0% | 75% | 38.1 min | ~100% | 86.8% | 89.3% | –
